Assay results from ChEMBL document CHEMBL3044672, “N9- and N7-(Chloromethyl Phenymethyl)Chloropurine Derivatives from , '-Dichloroxylenes: Synthesis and Anticancer Activity” (2005).

Legend:
Type in all cases: functional
OVCAR-5 = assay: Cytotoxicity against Homo sapiens (human) OVCAR5 cells after 48 hr by sulforhodamine B assay; details: OVCAR-5, 48 h; for CC50: read-out: LC50 (the source's name)
CAKI-1 = assay: Cytotoxicity against Homo sapiens (human) Caki1 cells after 48 hr by sulforhodamine B assay; details: CAKI-1, 48 h; for CC50: read-out: LC50 (the source's name)
SNB-19 = assay: Cytotoxicity against Homo sapiens (human) SNB19 cells after 48 hr by sulforhodamine B assay; details: SNB-19, 48 h
COLO 205 = assay: Cytotoxicity against Homo sapiens (human) COLO205 cells after 48 hr by sulforhodamine B assay; details: COLO 205, 48 h; for CC50: read-out: LC50 (the source's name)
BT-549 = assay: Cytotoxicity against Homo sapiens (human) BT549 cells after 48 hr by sulforhodamine B assay; details: BT-549, 48 h
SF-268 [1] = assay: Cytotoxicity against Homo sapiens (human) SF268 cells after 48 hr by sulforhodamine B assay; details: SF-268, 48 h; for CC50: read-out: LC50 (the source's name)
SW-620 = assay: Cytotoxicity against Homo sapiens (human) SW620 cells after 48 hr by sulforhodamine B assay; details: SW-620, 48 h; for CC50: read-out: LC50 (the source's name)
SF-268 [2] = assay: Cytotoxicity against Homo sapiens (human) SF268 cells assessed as cell growth at 10^-4 M after 48 hr by […] assay; details: SF-268, 48 h, read-out: Activity
OVCAR-3 = assay: Cytotoxicity against Homo sapiens (human) OVCAR3 cells after 48 hr by sulforhodamine B assay; details: OVCAR-3, 48 h
SF-539 = assay: Cytotoxicity against Homo sapiens (human) SF539 cells after 48 hr by sulforhodamine B assay; details: SF-539, 48 h
SK-MEL-2 = assay: Cytotoxicity against Homo sapiens (human) SK-MEL-2 cells after 48 hr by sulforhodamine B assay; details: SK-MEL-2, 48 h
MOLT-4 = assay: Cytotoxicity against Homo sapiens (human) MOLT4 cells after 48 hr by sulforhodamine B assay; details: MOLT-4, 48 h; for CC50: read-out: LC50 (the source's name)
786-0 = assay: Cytotoxicity against Homo sapiens (human) 786-0 cells after 48 hr by sulforhodamine B assay; details: 786-0, 48 h
NCI-H322M = assay: Cytotoxicity against Homo sapiens (human) NCI-H322M cells after 48 hr by sulforhodamine B assay; details: for CC50: read-out: LC50 (the source's name)
SF-295 = assay: Cytotoxicity against Homo sapiens (human) SF295 cells after 48 hr by sulforhodamine B assay; details: SF-295, 48 h; for CC50: read-out: LC50 (the source's name)
SK-OV-3 = assay: Cytotoxicity against Homo sapiens (human) SKOV3 cells after 48 hr by sulforhodamine B assay; details: SK-OV-3, 48 h
SNB-75 = assay: Cytotoxicity against Homo sapiens (human) SNB75 cells after 48 hr by sulforhodamine B assay; details: SNB-75, 48 h; for CC50: read-out: LC50 (the source's name)
OVCAR-8 = assay: Cytotoxicity against Homo sapiens (human) OVCAR8 cells after 48 hr by sulforhodamine B assay; details: OVCAR-8, 48 h
MDA-MB-231 = assay: Cytotoxicity against Homo sapiens (human) MDA-MB-231 cells after 48 hr by sulforhodamine B assay; details: MDA-MB-231, 48 h
CCRF-CEM = assay: Cytotoxicity against Homo sapiens (human) CCRF-CEM cells after 48 hr by sulforhodamine B assay; details: for CC50: read-out: LC50 (the source's name)
EKVX = assay: Cytotoxicity against Homo sapiens (human) EKVX cells after 48 hr by sulforhodamine B assay; details: for CC50: read-out: LC50 (the source's name)
ACHN = assay: Cytotoxicity against Homo sapiens (human) ACHN cells after 48 hr by sulforhodamine B assay; details: for CC50: read-out: LC50 (the source's name)
HCT-116 = assay: Cytotoxicity against Homo sapiens (human) HCT116 cells after 48 hr by sulforhodamine B assay; details: HCT-116, 48 h; for CC50: read-out: LC50 (the source's name)
UACC-62 = assay: Cytotoxicity against Homo sapiens (human) UACC62 cells after 48 hr by sulforhodamine B assay; details: UACC-62, 48 h
HOP-62 = assay: Cytotoxicity against Homo sapiens (human) HOP62 cells after 48 hr by sulforhodamine B assay; details: HOP-62, 48 h; for CC50: read-out: LC50 (the source's name)
NCI-H522 = assay: Cytotoxicity against Homo sapiens (human) NCI-H522 cells after 48 hr by sulforhodamine B assay; details: NCI-H522, 48 h; for CC50: read-out: LC50 (the source's name)

Molecule `Nc1nc(Cl)c2ncn(Cc3ccccc3CCl)c2n1` has a TGI (OVCAR-5) of 39.8 µM, a CC50 (OVCAR-5) of 79.4 µM and a TGI (CAKI-1) of 20.4 µM. The CC50 (CAKI-1) was 50.1 µM, the LC50 (SNB-19) was over 100 µM and the TGI (SNB-19) was 27.5 µM. For the same molecule, the TGI (COLO 205) was over 100 µM, the CC50 (COLO 205) was over 100 µM and the LC50 (50% lethal concentration) (BT-549) was 57.5 µM. It also gave a TGI (BT-549) of 22.9 µM, a TGI (SF-268 [1]) of 14.5 µM and a CC50 (SF-268 [1]) of 97.2 µM. It also gave a TGI (SW-620) of 11.8 µM, a CC50 (SW-620) of over 100 µM and a growth at 100 µM (SF-268 [2]) of 67%. For the same molecule, the LC50 (OVCAR-3) was 46.8 µM, the TGI (OVCAR-3) was 20 µM and the LC50 (concentration killing 50% of cells) (SF-539) was 81.3 µM. For the same molecule, the TGI (SF-539) was 38 µM, the LC50 (concentration killing 50% of cells) (SK-MEL-2) was over 100 µM and the TGI (SK-MEL-2) was 81.3 µM. The TGI (MOLT-4) was over 100 µM, the CC50 (MOLT-4) was over 100 µM and the LC50 (786-0) was over 100 µM. For the same molecule, the TGI (786-0) was 52.5 µM, the TGI (NCI-H322M) was 29.5 µM and the CC50 (NCI-H322M) was 69.2 µM. It also gave a TGI (SF-295) of 23.4 µM, a CC50 (SF-295) of 63.1 µM and an LC50 (SK-OV-3) of over 100 µM. It also gave a TGI (SK-OV-3) of 52.5 µM, a TGI (SNB-75) of 23.5 µM and a CC50 (SNB-75) of 64.6 µM. The LC50 (concentration killing 50% of cells) (OVCAR-8) was over 100 µM, the TGI (OVCAR-8) was 19.5 µM and the LC50 (MDA-MB-231) was 63.1 µM. The TGI (MDA-MB-231) was 9.55 µM, the TGI (CCRF-CEM) was over 100 µM and the CC50 (CCRF-CEM) was over 100 µM. The TGI (EKVX) was 30.9 µM, the CC50 (EKVX) was 60.3 µM and the TGI (ACHN) was 21.9 µM. For the same molecule, the CC50 (ACHN) was 75.9 µM, the TGI (HCT-116) was over 100 µM and the CC50 (HCT-116) was over 100 µM. It also gave an LC50 (concentration causing 50% net cell kill) (UACC-62) of 8.51 µM, a TGI (UACC-62) of 4.37 µM and a TGI (HOP-62) of 61.7 µM. It also gave a CC50 (HOP-62) of over 100 µM, a TGI (NCI-H522) of 9.33 µM and a CC50 (NCI-H522) of over 100 µM.

Work on `Nc1nc(Cl)c2ncn(Cc3cccc(CCl)c3)c2n1` yielded a GI50 (OVCAR-5) of 11 µM, a TGI (OVCAR-5) of 25.1 µM and a CC50 (OVCAR-5) of 57.5 µM. It also gave a GI50 (CAKI-1) of 0.24 µM, a TGI (CAKI-1) of 1.51 µM and a CC50 (CAKI-1) of 15.8 µM. For the same molecule, the GI50 (SNB-19) was 3.16 µM, the LC50 (SNB-19) was 46.8 µM and the TGI (SNB-19) was 15.1 µM. The GI50 (COLO 205) was 6.76 µM, the TGI (COLO 205) was 27.5 µM and the CC50 (COLO 205) was 97.7 µM. For the same molecule, the GI50 (BT-549) was 4.07 µM, the LC50 (50% lethal concentration) (BT-549) was 58.9 µM and the TGI (BT-549) was 17.4 µM. The GI50 (SF-268 [1]) was 3.02 µM, the TGI (SF-268 [1]) was 10.2 µM and the CC50 (SF-268 [1]) was 67.6 µM. For the same molecule, the GI50 (SW-620) was 3.8 µM, the TGI (SW-620) was 11.2 µM and the CC50 (SW-620) was 57.5 µM. For the same molecule, the growth at 100 µM (SF-268 [2]) was 0%, the GI50 (OVCAR-3) was 0.72 µM and the LC50 (OVCAR-3) was 5.49 µM. The TGI (OVCAR-3) was 2.29 µM, the GI50 (SF-539) was 4.67 µM and the LC50 (concentration killing 50% of cells) (SF-539) was 69.2 µM. The TGI (SF-539) was 20.4 µM, the GI50 (SK-MEL-2) was 10.7 µM and the LC50 (concentration killing 50% of cells) (SK-MEL-2) was over 100 µM. The TGI (SK-MEL-2) was 66.1 µM, the GI50 (MOLT-4) was 4.78 µM and the TGI (MOLT-4) was over 100 µM. For the same molecule, the CC50 (MOLT-4) was over 100 µM, the GI50 (786-0) was 6.6 µM and the LC50 (786-0) was 91.2 µM. For the same molecule, the TGI (786-0) was 26.3 µM, the GI50 (NCI-H322M) was 10.5 µM and the TGI (NCI-H322M) was 22.4 µM. It also gave a CC50 (NCI-H322M) of 46.8 µM, a GI50 (SF-295) of 3.38 µM and a TGI (SF-295) of 14.5 µM. For the same molecule, the CC50 (SF-295) was 39.8 µM, the GI50 (SK-OV-3) was 24 µM and the LC50 (SK-OV-3) was over 100 µM. The TGI (SK-OV-3) was 67.6 µM, the GI50 (SNB-75) was 5.75 µM and the TGI (SNB-75) was 19.5 µM. The CC50 (SNB-75) was 51.3 µM, the GI50 (OVCAR-8) was 2.29 µM and the LC50 (concentration killing 50% of cells) (OVCAR-8) was 53.7 µM. The TGI (OVCAR-8) was 6.76 µM, the GI50 (MDA-MB-231) was 12 µM and the LC50 (MDA-MB-231) was 69.2 µM. The TGI (MDA-MB-231) was 28.8 µM, the GI50 (CCRF-CEM) was 3.02 µM and the TGI (CCRF-CEM) was over 100 µM. It also gave a CC50 (CCRF-CEM) of over 100 µM, a GI50 (EKVX) of 21.4 µM and a TGI (EKVX) of 36.3 µM. For the same molecule, the CC50 (EKVX) was 60.2 µM, the GI50 (ACHN) was 2.88 µM and the TGI (ACHN) was 8.71 µM. For the same molecule, the CC50 (ACHN) was 29.5 µM, the GI50 (HCT-116) was 1.99 µM and the TGI (HCT-116) was 3.89 µM. It also gave a CC50 (HCT-116) of 75.9 µM, a GI50 (UACC-62) of 2.09 µM and an LC50 (concentration causing 50% net cell kill) (UACC-62) of 13.5 µM. For the same molecule, the TGI (UACC-62) was 4.78 µM, the GI50 (HOP-62) was 5.75 µM and the TGI (HOP-62) was 20.4 µM. It also gave a CC50 (HOP-62) of 58.9 µM, a GI50 (NCI-H522) of 3.31 µM and a TGI (NCI-H522) of 13.5 µM. It also gave a CC50 (NCI-H522) of 81.3 µM.
